Tests used:
[1] = test system: BaF3-FL KIT D816V or BaF3-FL KIT V560G/D816V cell line; assay: Cell-based assays of c-Kit mutant kinase activity (cell proliferation, ATPlite); conditions: at least one of the c-kit cell assays of Example 7
In short: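 BaF3 cells dependent on transfected full-length human KIT D816V or V560G/D816V (pCI-Neo, CMV promoter) were seeded at 1×10^4 cells/well and exposed to 8-point 1:3 dilutions from 10 μM top (0.2% DMSO) for three days at 37° C. ATPlite luminescence gave cell number; IC50 from concentration-response.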

[2] = target: c-Kit kinase (Homo sapiens (Human), UniProt P10721); assay: c-Kit biochemical assay (AlphaScreen kinase activity)
Chain of c-Kit kinase (P10721 26-976): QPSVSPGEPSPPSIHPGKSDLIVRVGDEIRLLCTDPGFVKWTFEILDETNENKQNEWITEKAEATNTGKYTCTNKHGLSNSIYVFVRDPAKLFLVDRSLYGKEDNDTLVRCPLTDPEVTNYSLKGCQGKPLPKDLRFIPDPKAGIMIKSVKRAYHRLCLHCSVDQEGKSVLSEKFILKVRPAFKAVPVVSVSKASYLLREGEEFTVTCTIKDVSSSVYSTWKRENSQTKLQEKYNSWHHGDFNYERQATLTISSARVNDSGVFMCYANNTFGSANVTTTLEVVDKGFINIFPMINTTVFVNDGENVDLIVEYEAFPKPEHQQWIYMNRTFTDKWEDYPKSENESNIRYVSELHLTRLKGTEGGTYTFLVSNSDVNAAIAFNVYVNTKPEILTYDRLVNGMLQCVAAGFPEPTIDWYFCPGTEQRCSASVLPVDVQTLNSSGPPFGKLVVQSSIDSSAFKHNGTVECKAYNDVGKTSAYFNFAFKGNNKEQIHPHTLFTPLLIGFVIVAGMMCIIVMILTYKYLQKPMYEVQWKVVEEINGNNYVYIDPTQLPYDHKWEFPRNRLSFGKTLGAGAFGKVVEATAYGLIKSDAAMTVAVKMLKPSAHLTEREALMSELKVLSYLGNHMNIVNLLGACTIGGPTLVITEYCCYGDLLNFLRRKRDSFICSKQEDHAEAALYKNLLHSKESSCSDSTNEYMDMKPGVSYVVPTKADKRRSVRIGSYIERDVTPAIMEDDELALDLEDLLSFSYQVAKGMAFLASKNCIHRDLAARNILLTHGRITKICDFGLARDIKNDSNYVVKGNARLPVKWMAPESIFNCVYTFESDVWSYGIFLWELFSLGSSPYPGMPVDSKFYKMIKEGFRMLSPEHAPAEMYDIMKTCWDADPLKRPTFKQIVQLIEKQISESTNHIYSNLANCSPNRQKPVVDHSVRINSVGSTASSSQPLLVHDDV
In short: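 IC50 values come from 8-point, 1:3 compound titrations measuring inhibition of peptide phosphorylation by c-Kit (commercial or His-tagged E. coli-expressed) over 1 h at room temperature, read by AlphaScreen PY30/streptavidin beads. Low-ATP version: 10 μM ATP, 100 nM biotin-(E4Y)3; high-ATP version: 100 μM ATP, 30 nM biotin-(E4Y)10.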

Row | SMILES | IC50 [1] | IC50 [2]
1 | CNC(=O)c1ccc(-c2cc3c(N4CCC(C)(c5nc(C)c(-c6cccc(OC)c6)[nH]5)CC4)ncnc3[nH]2)cn1 [P-3222, 5-[4-[4-[5-(3-methoxyphenyl)-4-methyl-1H-imidazol-2-yl]-4-methyl-1-piperidyl]-7H-pyrrolo[2,3-d]pyrimidin-6-yl]-N-methyl-pyridine-2-carboxamide] | < 10000 nM | 0.0001 to 1 µM
2 | COc1cccc(-c2[nH]c(C3(C)CCN(c4ncnc5[nH]c(-c6ccc(N7CCOCC7)nc6)cc45)CC3)nc2C)c1 [P-3223, 4-[5-[4-[4-[5-(3-methoxyphenyl)-4-methyl-1H-imidazol-2-yl]-4-methyl-1-piperidyl]-7H-pyrrolo[2,3-d]pyrimidin-6-yl]-2-pyridyl]morpholine] | < 10000 nM | 0.0001 to 1 µM
3 | CCOc1ccc(-c2[nH]c(C3(C)CCN(c4ncnc5[nH]c(-c6ccc(OCC(=O)O)cc6)cc45)CC3)nc2C)cc1 [P-3224, 2-[4-[4-[4-[5-(4-ethoxyphenyl)-4-methyl-1H-imidazol-2-yl]-4-methyl-1-piperidyl]-7H-pyrrolo[2,3-d]pyrimidin-6-yl]phenoxy]acetic acid] | < 10000 nM | 0.0001 to 1 µM
4 | COc1cccc(-c2[nH]c(C3(C)CCN(c4ncnc5[nH]c(-c6ccc(C(N)=O)cc6)cc45)CC3)nc2C)c1 [P-3225, 4-[4-[4-[5-(3-methoxyphenyl)-4-methyl-1H-imidazol-2-yl]-4-methyl-1-piperidyl]-7H-pyrrolo[2,3-d]pyrimidin-6-yl]benzamide] | < 10000 nM | 0.0001 to 1 µM
5 | CCOc1ccc(-c2[nH]c(C3(C)CCN(c4ncnc5[nH]c(-c6ccc(C(=O)NC)nc6)cc45)CC3)nc2C)cc1 [P-3226, 5-[4-[4-[5-(4-ethoxyphenyl)-4-methyl-1H-imidazol-2-yl]-4-methyl-1-piperidyl]-7H-pyrrolo[2,3-d]pyrimidin-6-yl]-N-methyl-pyridine-2-carboxamide] | < 10000 nM | 0.0001 to 1 µM
6 | CCOc1ccc(-c2[nH]c(C3(C)CCN(c4ncnc5[nH]c(-c6ccc(N7CCOCC7)nc6)cc45)CC3)nc2C)cc1 [P-3227, 4-[5-[4-[4-[5-(4-ethoxyphenyl)-4-methyl-1H-imidazol-2-yl]-4-methyl-1-piperidyl]-7H-pyrrolo[2,3-d]pyrimidin-6-yl]-2-pyridyl]morpholine] | < 10000 nM | 0.0001 to 1 µM
7 | COc1ccc(-c2[nH]c(C3(C)CCN(c4ncnc5[nH]c(-c6ccc(NS(C)(=O)=O)cc6)cc45)CC3)nc2C)cc1C [P-3228, N-[4-[4-[4-[5-(4-methoxy-3-methyl-phenyl)-4-methyl-1H-imidazol-2-yl]-4-methyl-1-piperidyl]-7H-pyrrolo[2,3-d]pyrimidin-6-yl]phenyl]methanesulfonamide] | < 10000 nM | 0.0001 to 1 µM
8 | CCOc1ccc(-c2[nH]c(C3(C)CCN(c4ncnc5[nH]c(-c6ccc(C(N)=O)cc6)cc45)CC3)nc2C)cc1 [P-3229, 4-[4-[4-[5-(4-ethoxyphenyl)-4-methyl-1H-imidazol-2-yl]-4-methyl-1-piperidyl]-7H-pyrrolo[2,3-d]pyrimidin-6-yl]benzamide] | < 10000 nM | 0.0001 to 1 µM
9 | CCOc1ccc(-c2[nH]c(C3(C)CCN(c4ncnc5[nH]c(-c6ccc(NS(C)(=O)=O)cc6)cc45)CC3)nc2C)cc1 [P-3230, N-[4-[4-[4-[5-(4-ethoxyphenyl)-4-methyl-1H-imidazol-2-yl]-4-methyl-1-piperidyl]-7H-pyrrolo[2,3-d]pyrimidin-6-yl]phenyl]methanesulfonamide] | < 10000 nM | 0.0001 to 1 µM
10 | Cc1nc(C2(C)CCN(c3ncnc4[nH]c(-c5ccc(C(N)=O)cc5)cc34)CC2)[nH]c1-c1cccc(OC(F)F)c1 [P-3231, 4-[4-[4-[5-[3-(difluoromethoxy)phenyl]-4-methyl-1H-imidazol-2-yl]-4-methyl-1-piperidyl]-7H-pyrrolo[2,3-d]pyrimidin-6-yl]benzamide] | < 10000 nM | 0.0001 to 1 µM
11 | Cc1nc(C2(C)CCN(c3ncnc4[nH]c(-c5ccc(NS(C)(=O)=O)cc5)cc34)CC2)[nH]c1-c1cccc(OC(F)F)c1 [P-3232, N-[4-[4-[4-[5-[3-(difluoromethoxy)phenyl]-4-methyl-1H-imidazol-2-yl]-4-methyl-1-piperidyl]-7H-pyrrolo[2,3-d]pyrimidin-6-yl]phenyl]methanesulfonamide] | < 10000 nM | 0.0001 to 1 µM
12 | Cc1nc(C2(C)CCN(c3ncnc4[nH]c(-c5ccc(OCC(=O)O)cc5)cc34)CC2)[nH]c1-c1cccc(OC(F)F)c1 [P-3233, 2-[4-[4-[4-[5-[3-(difluoromethoxy)phenyl]-4-methyl-1H-imidazol-2-yl]-4-methyl-1-piperidyl]-7H-pyrrolo[2,3-d]pyrimidin-6-yl]phenoxy]acetic acid] | < 10000 nM | 0.0001 to 1 µM
13 | COc1cccc(-c2[nH]c(C3(C)CCN(c4ncnc5[nH]c(-c6ccc(NS(C)(=O)=O)cc6)cc45)CC3)nc2C)c1 [P-3234, N-[4-[4-[4-[5-(3-methoxyphenyl)-4-methyl-1H-imidazol-2-yl]-4-methyl-1-piperidyl]-7H-pyrrolo[2,3-d]pyrimidin-6-yl]phenyl]methanesulfonamide] | < 10000 nM | 0.0001 to 1 µM
14 | CNC(=O)c1ccc(-c2cc3c(N4CCC(C)(c5nc(C)c(-c6ccc(C(F)F)cc6)[nH]5)CC4)ncnc3[nH]2)cn1 [P-3235, 5-[4-[4-[5-[4-(difluoromethyl)phenyl]-4-methyl-1H-imidazol-2-yl]-4-methyl-1-piperidyl]-7H-pyrrolo[2,3-d]pyrimidin-6-yl]-N-methyl-pyridine-2-carboxamide] | < 10000 nM | 0.0001 to 1 µM
15 | CNC(=O)c1ccc(-c2cc3c(N4CCC(C)(c5nc(C)c(-c6cccc(OC(F)F)c6)[nH]5)CC4)ncnc3[nH]2)cn1 [P-3236, 5-[4-[4-[5-[3-(difluoromethoxy)phenyl]-4-methyl-1H-imidazol-2-yl]-4-methyl-1-piperidyl]-7H-pyrrolo[2,3-d]pyrimidin-6-yl]-N-methyl-pyridine-2-carb oxamide] | < 10000 nM | 0.0001 to 1 µM
16 | Cc1nc(C2(C)CCN(c3ncnc4[nH]c(-c5ccc(N6CCOCC6)nc5)cc34)CC2)[nH]c1-c1ccc(C(F)F)cc1 [P-3237, 4-[5-[4-[4-[5-[4-(difluoromethyl)phenyl]-4-methyl-1H-imidazol-2-yl]-4-methyl-1-piperidyl]-7H-pyrrolo[2,3-d]pyrimidin-6-yl]-2-pyridyl]morpholine] | < 10000 nM | 0.0001 to 1 µM
17 | Cc1nc(C2(C)CCN(c3ncnc4[nH]c(-c5ccc(N6CCOCC6)nc5)cc34)CC2)[nH]c1-c1cccc(OC(F)F)c1 [P-3238, 4-[5-[4-[4-[5-[3-(difluoromethoxy)phenyl]-4-methyl-1H-imidazol-2-yl]-4-methyl-1-piperidyl]-7H-pyrrolo[2,3-d]pyrimidin-6-yl]-2-pyridyl]morpholine] | < 10000 nM | 0.0001 to 1 µM
18 | Cc1nc(C2(C)CCN(c3ncnc4[nH]c(-c5ccc(C(N)=O)cc5)cc34)CC2)[nH]c1-c1ccc(C(F)F)cc1 [P-3239, 4-[4-[4-[5-[4-(difluoromethyl)phenyl]-4-methyl-1H-imidazol-2-yl]-4-methyl-1-piperidyl]-7H-pyrrolo[2,3-d]pyrimidin-6-yl]benzamide] | < 10000 nM | 0.0001 to 1 µM
19 | Cc1nc(C2(C)CCN(c3ncnc4[nH]c(-c5ccc(OCC(=O)O)cc5)cc34)CC2)[nH]c1-c1ccc(C(F)F)cc1 [P-3240, 2-[4-[4-[4-[5-[4-(difluoromethyl)phenyl]-4-methyl-1H-imidazol-2-yl]-4-methyl-1-piperidyl]-7H-pyrrolo[2,3-d]pyrimidin-6-yl]phenoxy]acetic acid] | < 10000 nM | 0.0001 to 1 µM
20 | Cc1nc(C2(C)CCN(c3ncnc4[nH]c(-c5ccc(OCC(=O)O)cc5)cc34)CC2)[nH]c1-c1ccc(OC(F)F)cc1 [P-3241, 2-[4-[4-[4-[5-[4-(difluoromethoxy)phenyl]-4-methyl-1H-imidazol-2-yl]-4-methyl-1-piperidyl]-7H-pyrrolo[2,3-d]pyrimidin-6-yl]phenoxy]acetic acid] | < 10000 nM | 0.0001 to 1 µM
21 | Cc1nc(C2(C)CCN(c3ncnc4[nH]c(-c5cnn(C(F)F)c5)cc34)CC2)[nH]c1-c1ccc(OC(F)F)cc1 [P-3242, 4-[4-[5-[4-(difluoromethoxy)phenyl]-4-methyl-1H-imidazol-2-yl]-4-methyl-1-piperidyl]-6-[1-(difluoromethyl)pyrazol-4-yl]-7H-pyrrolo[2,3-d]pyrimidine] | < 10000 nM | 0.0001 to 1 µM
22 | CCOc1ccc(-c2[nH]c(C3(C)CCN(c4ncnc5[nH]c(-c6ccc(C(N)=O)cc6)cc45)CC3)nc2C)cc1C [P-3243, 4-[4-[4-[5-(4-ethoxy-3-methyl-phenyl)-4-methyl-1H-imidazol-2-yl]-4-methyl-1-piperidyl]-7H-pyrrolo[2,3-d]pyrimidin-6-yl]benzamide] | < 10000 nM | 0.0001 to 1 µM
23 | CCOc1ccc(-c2[nH]c(C3(C)CCN(c4ncnc5[nH]c(-c6ccc(OCC(=O)O)cc6)cc45)CC3)nc2C)cc1C [P-3244, 2-[4-[4-[4-[5-(4-ethoxy-3-methyl-phenyl)-4-methyl-1H-imidazol-2-yl]-4-methyl-1-piperidyl]-7H-pyrrolo[2,3-d]pyrimidin-6-yl]phenoxy]acetic acid] | < 10000 nM | 0.0001 to 1 µM
24 | CCOc1ccc(-c2[nH]c(C3(C)CCN(c4ncnc5[nH]c(-c6cnn(C(F)F)c6)cc45)CC3)nc2C)cc1C [P-3245, 6-[1-(difluoromethyl)pyrazol-4-yl]-4-[4-[5-(4-ethoxy-3-methyl-phenyl)-4-methyl-1H-imidazol-2-yl]-4-methyl-1-piperidyl]-7H-pyrrolo[2,3-d]pyrimidine] | < 10000 nM | 0.0001 to 1 µM
